According to patent US20250177430A1, “Compositions Comprising NAD+ and Associated Methods of Treatment” (priority 2022, published 2025):

Tests used:
[1] = system: opiate withdrawal symptoms; experiment: Treatment of opiate/heroin withdrawal patients, delivery by SphenoCath to the sphenopalatine foramen; format: in vivo, human
Text: A device called the SphenoCath has been used to administer medication to the sphenopalatine foramen. The SphenoCath is a curved flexible catheter with a semi-rigid retractable sheath overlaying the catheter attached to a syringe. The SphenoCath is inserted through the nostril, until the tip of the SphenoCath reaches the anterior roof of the nasal cavity. The sheath of the SphenoCath is retracted allowing the curved inner catheter to drop over the anterior aspect of the middle turbinate. With the head correctly positioned medication is reliably dispensed to the area of the membrane covering the sphenopalatine foramen, and then through absorption into the pterygopalatine fossa and the nerves contained therein.
At the eleventh treatment dexamethasone was added to the combination. […] The treatment including dexamethasone was repeated 2 more times.

[2] = system: dissociative experience and discomfort; experiment: Tolerability and dissociative effects in treated patients
Text: The individual components of the composition can be administered individually.

anxiety and depression = experiment: Treatment of anxiety and depression patients, delivery by SphenoCath, subjective and family reports; format: in vivo, human; conditions: Patient 2; single IV treatment, about 30 mg
Experimental: Patient continued treatment over the course of a six-month period on an as-needed basis, which ranged from twice a week to every other month.
Inventor and patient decided to begin with the fairly typical six treatment induction phase used by IV ketamine clinics, but deliver it using the SphenoCath to the sphenopalatine foramen.
The fourth treatment was 2 ml of the combination with concentrations of 80 mg/ml NAD+, 12.5 mg/ml ketamine, and 5 mg/ml. […] Several of the treatments included a rotation of the head. For example, the combination was administered to the Patient and the head was rotated 30 degrees to the right for 5 minutes, then 30 degrees to the left for 5 minutes and then neutral for 5 minutes. Other times the head was rotated to the right at 30 degrees for 5 minutes, then 30 degrees to the left for 5 minutes and then neutral for 5 minutes.
Patient 5 completed the GAD 7 and PHQ 9 screening tools before treatment and two weeks after completion of the series. […] Patient returned for “booster” treatments four months later. […] The treatment regime also included 30-degree rotation to the right for 5 minutes, then 30-degree rotation to the left for 5 minutes, finally neutral for 5 minutes.
The first treatment was 1.8 ml of the combination with concentrations of 55 mg/ml NAD+, 14 mg/ml ketamine, 3 mg/ml. […]

migraine and facial pain = conditions: through the sphenopalatine foramen into the pterygopalatine fossa; inventor's patients

SMILES: NC(=O)c1ccc[n+]([C@@H]2O[C@H](COP(=O)([O-])OP(=O)(O)OC[C@H]3O[C@@H](n4cnc5c(N)ncnc54)[C@H](O)[C@@H]3O)[C@@H](O)[C@H]2O)c1 [NAD+]
- effect of adding NAD+ on chemical dependency (withdrawal symptoms and cravings) ([1]; added to lidocaine, general observation): significantly enhanced the effect on chemical dependency
- patient experience on receiving the component individually ([2]; NAD+ administered individually): less pleasant and can lead to discomfort
- effect on dissociative effects of the NMDA receptor antagonist ([2]; NAD+ in composition with lidocaine and ketamine): significantly diminishes the dissociative effects

SMILES: CNC1(c2ccccc2Cl)CCCCC1=O (centres unmarked) [ketamine]
- effect on mood (anxiety and depression): about the same as the intranasal treatments
- patient experience with ketamine alone ([2]; IV and intranasal, compared with mixture of NAD+, lidocaine and ketamine): more intense and dissociative experience
- patient experience of IV ketamine ([2]; Patient 2, IV at a ketamine clinic, stopped after about 30 mg): very dissociative and unpleasant experience
- time until patient felt fine after discontinuation ([2]; Patient 2, single IV treatment, about 30 mg): 30 to 45 min
- patient state after ketamine alone ([2]; Patient 4, 15 minutes after intranasal delivery to sphenopalatine foramen, slightly lower dose than in the combined treatment): very agitated and uncomfortable

SMILES: CCN(CC)CC(=O)Nc1c(C)cccc1C [lidocaine]
- opiate withdrawal symptoms ([1]; person, SphenoCath, treated twice 48 hours apart): noticeably improved
- need for buprenorphine during withdrawal ([1]; person, buprenorphine was necessary for previous detox episodes): able to go through withdrawal without the use bupenophrine
- treatment success in chronic/acute migraine, cluster headache, trigeminal and postherpetic neuralgia, post-concussion headache (migraine and facial pain): successful in most cases
